Experimental data: PubChem BioAssay AID330 (DTP/NCI, 2004)
Values joined by “and” are separate entries in the source; they are usually repeats but may differ in a detail not shown here. Equal entries are not always repeated. Inconclusive results and toxic doses are left out. Numbered stars: 1 amine (or outer) side, 2 acyl side, 3 side chain; on linkers, the order of the positions; unused ones are H or OH. Bridge positions count the residues as written; N and C are the ends. Square brackets hold non-standard residues; d marks the D form. Peptide text beside a SMILES is read from it. I, II: the chains in the order shown. Actinocin(9to1) = Cc1c2oc3c(C)ccc(C(=O)[*:1])c3nc-2c(C(=O)[*:2])c(N)c1=O; aThr = C[C@H](O)[C@H](N)C(=O)O; NMeV = CN[C@H](C(=O)O)C(C)C; Sar = CNCC(=O)O

Test system: P388 leukemia ip, CD2F1 mice, survival T/C
Assay: NCI In Vivo Anticancer Drug Screen. Data for tumor model P388 Leukemia (intraperitoneal) in CD2F1 (CDF1) mice
Conditions: endpoint: median survival time, higher = longer survival
Outline: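 Mice carrying the transplanted tumor received test compound or vehicle. Survival was recorded in each group, and the value is the treated-group measurement divided by that of the vehicle-treated control group.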

[1] = dose: 50.0 mg/kg/injection, schedule: Q01DX005 (ip), vehicle: Klucel (hydroxypropylcellulose) (HPC)
[2] = dose: 100.0 mg/kg/injection, schedule: Q01DX005 (ip), vehicle: Klucel (hydroxypropylcellulose) (HPC)
[3] = dose: 200.0 mg/kg/injection, schedule: Q01DX005 (ip), vehicle: Klucel (hydroxypropylcellulose) (HPC)

## Brc1cccc2c(SCCCCCCSc3c4ccccc4nc4c(Br)cccc34)c3ccccc3nc12
dose: 60.0 mg/kg/injection, schedule: Q01DX005 (ip), vehicle: Klucel (hydroxypropylcellulose) (HPC)
  T/C: 93 % of control
dose: 120.0 mg/kg/injection, schedule: Q01DX005 (ip), vehicle: Klucel (hydroxypropylcellulose) (HPC)
  T/C: 92 % of control
dose: 240.0 mg/kg/injection, schedule: Q01DX005 (ip), vehicle: Klucel (hydroxypropylcellulose) (HPC)
  T/C: 93 % of control

## CC(=O)N=C1C=C(NC(C)=O)C(=O)c2ccccc21
dose: 6.25 mg/kg/injection, schedule: Q01DX009 (ip), vehicle: Klucel (hydroxypropylcellulose) (HPC)
  T/C: 103 % of control
dose: 12.5 mg/kg/injection, schedule: Q01DX009 (ip), vehicle: Klucel (hydroxypropylcellulose) (HPC)
  T/C: 99 % of control and 100 % of control and 116 % of control
dose: 25.0 mg/kg/injection, schedule: Q01DX009 (ip), vehicle: Klucel (hydroxypropylcellulose) (HPC)
  T/C: 100 % of control and 105 % of control and 124 % of control
dose: 50.0 mg/kg/injection, schedule: Q01DX009 (ip), vehicle: Klucel (hydroxypropylcellulose) (HPC)
  T/C: 112 % of control

## Cc1ccccc1SSCCN
[1]
  T/C: 103 % of control
[2]
  T/C: 103 % of control

## CC(C)N(C(=O)SCC(Cl)=C(Cl)Cl)C(C)C
dose: 60.0 mg/kg/injection, schedule: Q01DX005 (ip), vehicle: saline with Tween-80
  T/C: 100 % of control
dose: 120.0 mg/kg/injection, schedule: Q01DX005 (ip), vehicle: saline with Tween-80
  T/C: 103 % of control
dose: 240.0 mg/kg/injection, schedule: Q01DX005 (ip), vehicle: saline with Tween-80
  T/C: 102 % of control

## O=C(N/N=C\c1c(O)ccc2ccccc12)C1CC1
[1]
  T/C: 103 % of control
[2]
  T/C: 97 % of control
[3]
  T/C: 101 % of control

## OCC(O)CNc1ncnc2cc(Cl)ccc12 (configuration not stated)
dose: 25.0 mg/kg/injection, schedule: Q01DX005 (ip), vehicle: Klucel (hydroxypropylcellulose) (HPC)
  T/C: 100 % of control
[1]
  T/C: 96 % of control
[2]
  T/C: 102 % of control
[3]
  T/C: 105 % of control

## Cc1cnc2c(N)cc(C)c(C)c2c1
dose: 12.5 mg/kg/injection, schedule: Q01DX009 (ip), vehicle: saline with Tween-80
  T/C: 94 % of control
dose: 25.0 mg/kg/injection, schedule: Q01DX009 (ip), vehicle: saline with Tween-80
  T/C: 100 % of control
dose: 50.0 mg/kg/injection, schedule: Q01DX009 (ip), vehicle: saline with Tween-80
  T/C: 99 % of control and 100 % of control
dose: 100.0 mg/kg/injection, schedule: Q01DX009 (ip), vehicle: saline with Tween-80
  T/C: 86 % of control

## Cc1c2oc3c(C)ccc(C(=O)N[C@@H]4C(=O)N[C@H](C(C)C)C(=O)N5CCC[C@H]5C(=O)N(C)CC(=O)N(C)[C@@H](C(C)C)C(=O)O[C@H]4C)c3nc-2c(C(=O)N[C@@H]2C(=O)N[C@H](C(C)C)C(=O)N3CCC[C@H]3C(=O)N(C)CC(=O)N(C)[C@@H](C(C)C)C(=O)O[C@H]2C)c(N)c1=O (I: [aThr][dV]P[Sar][NMeV] / II: [aThr][dV]P[Sar][NMeV]; ester I:1-I:C, II:1-II:C; linker I:N-II:N via Actinocin(9to1))
dose: 0.05 mg/kg/injection, schedule: Q01DX005 (ip), vehicle: saline + alcohol
  T/C: 236 % of control
dose: 0.08 mg/kg/injection, schedule: Q04DX003 (ip), vehicle: saline + alcohol
  T/C: 165 % of control
dose: 0.09 mg/kg/injection, schedule: Q01DX009 (ip), vehicle: water
  T/C: 79 % of control
dose: 0.1 mg/kg/injection, schedule: Q01DX001 (ip), vehicle: water
  T/C: 181 % of control
dose: 0.11 mg/kg/injection, schedule: Q04DX003 (ip), vehicle: saline + alcohol
  T/C: 151 % of control
dose: 0.13 mg/kg/injection, schedule: Q04DX002 (ip), vehicle: saline + alcohol
  T/C: 156 % of control and 180 % of control and 198 % of control
dose: 0.13 mg/kg/injection, schedule: Q04DX003 (ip), vehicle: saline + alcohol
  T/C: 223 % of control
dose: 0.15 mg/kg/injection, schedule: Q04DX003 (ip), vehicle: saline
  T/C: 169 % of control
dose: 0.16 mg/kg/injection, schedule: Q01DX009 (ip), vehicle: water
  T/C: 65 % of control
dose: 0.18 mg/kg/injection, schedule: Q04DX003 (ip), vehicle: saline + alcohol
  T/C: 163 % of control
dose: 0.21 mg/kg/injection, schedule: Q04DX002 (ip), vehicle: saline + alcohol
  T/C: 186 % of control
dose: 0.22 mg/kg/injection, schedule: Q04DX002 (ip), vehicle: saline + alcohol
  T/C: 162 % of control and 215 % of control
dose: 0.22 mg/kg/injection, schedule: Q04DX003 (ip), vehicle: saline + alcohol
  T/C: 247 % of control
dose: 0.3 mg/kg/injection, schedule: Q01DX001 (ip), vehicle: saline
  T/C: 153 % of control
dose: 0.3 mg/kg/injection, schedule: Q04DX003 (ip), vehicle: saline + alcohol
  T/C: 182 % of control
dose: 0.3 mg/kg/injection, schedule: Q04DX003 (ip), vehicle: saline
  T/C: 175 % of control
dose: 0.36 mg/kg/injection, schedule: Q04DX002 (ip), vehicle: saline + alcohol
  T/C: 118 % of control and 176 % of control and 212 % of control
dose: 0.36 mg/kg/injection, schedule: Q04DX003 (ip), vehicle: saline + alcohol
  T/C: 99 % of control
dose: 0.45 mg/kg/injection, schedule: Q01DX001 (ip), vehicle: saline
  T/C: 164 % of control
dose: 0.5 mg/kg/injection, schedule: Q04DX003 (ip), vehicle: saline + alcohol
  T/C: 220 % of control
dose: 0.6 mg/kg/injection, schedule: Q01DX001 (ip), vehicle: saline
  T/C: 169 % of control
dose: 0.6 mg/kg/injection, schedule: Q04DX002 (ip), vehicle: saline + alcohol
  T/C: 101 % of control and 207 % of control and 254 % of control
dose: 0.6 mg/kg/injection, schedule: Q04DX003 (ip), vehicle: saline
  T/C: 86 % of control
dose: 0.8 mg/kg/injection, schedule: Q01DX001 (ip), vehicle: water
  T/C: 183 % of control
dose: 1.0 mg/kg/injection, schedule: Q04DX002 (ip), vehicle: saline + alcohol
  T/C: 260 % of control and 274 % of control
dose: 1.2 mg/kg/injection, schedule: Q01DX001 (ip), vehicle: water
  T/C: 55 % of control
dose: 3.0 micrograms/kg/injection, schedule: Q01DX009 (ip), vehicle: water
  T/C: 150 % of control and 160 % of control and 175 % of control
dose: 6.0 micrograms/kg/injection, schedule: Q01DX009 (ip), vehicle: water
  T/C: 164 % of control and 170 % of control and 188 % of control
dose: 6.25 micrograms/kg/injection, schedule: Q01DX005 (ip), vehicle: saline + alcohol
  T/C: 207 % of control
dose: 6.25 micrograms/kg/injection, schedule: Q01DX009 (ip), vehicle: saline
  T/C: 150 % of control
dose: 6.5 micrograms/kg/injection, schedule: Q01DX009 (ip), vehicle: saline + alcohol
  T/C: 155 % of control
dose: 10.8 micrograms/kg/injection, schedule: Q01DX009 (ip), vehicle: saline + alcohol
  T/C: 160 % of control
dose: 12.5 micrograms/kg/injection, schedule: Q01DX005 (ip), vehicle: saline + alcohol
  T/C: 207 % of control
dose: 18.0 micrograms/kg/injection, schedule: Q01DX009 (ip), vehicle: saline + alcohol
  T/C: 163 % of control
dose: 25.0 micrograms/kg/injection, schedule: Q01DX005 (ip), vehicle: saline + alcohol
  T/C: 245 % of control
dose: 30.0 micrograms/kg/injection, schedule: Q01DX009 (ip), vehicle: saline + alcohol
  T/C: 184 % of control
dose: 50.0 micrograms/kg/injection, schedule: Q01DX005 (ip), vehicle: saline + alcohol
  T/C: 176 % of control and 267 % of control
dose: 64.8 micrograms/kg/injection, schedule: Q04DX003 (ip), vehicle: saline + alcohol
  T/C: 156 % of control
dose: 77.8 micrograms/kg/injection, schedule: Q04DX003 (ip), vehicle: saline + alcohol
  T/C: 174 % of control
dose: 83.3 micrograms/kg/injection, schedule: Q01DX009 (ip), vehicle: saline + alcohol
  T/C: 98 % of control
dose: 100.0 micrograms/kg/injection, schedule: Q01DX005 (ip), vehicle: saline + alcohol
  T/C: 178 % of control
dose: 130.0 micrograms/kg/injection, schedule: Q04DX003 (ip), vehicle: saline + alcohol
  T/C: 175 % of control
dose: 139.0 micrograms/kg/injection, schedule: Q01DX009 (ip), vehicle: saline + alcohol
  T/C: 96 % of control
dose: 180.0 micrograms/kg/injection, schedule: Q04DX003 (ip), vehicle: saline + alcohol
  T/C: 190 % of control
dose: 216.0 micrograms/kg/injection, schedule: Q04DX003 (ip), vehicle: saline + alcohol
  T/C: 192 % of control
dose: 300.0 micrograms/kg/injection, schedule: Q04DX003 (ip), vehicle: saline + alcohol
  T/C: 162 % of control and 175 % of control
dose: 360.0 micrograms/kg/injection, schedule: Q04DX003 (ip), vehicle: saline + alcohol
  T/C: 197 % of control
dose: 500.0 micrograms/kg/injection, schedule: Q04DX003 (ip), vehicle: saline + alcohol
  T/C: 113 % of control and 219 % of control
dose: 600.0 micrograms/kg/injection, schedule: Q04DX003 (ip), vehicle: saline + alcohol
  T/C: 101 % of control

## O=C1NC(=O)C(=O)N1
dose: 100.0 mg/kg/injection, schedule: Q04DX003 (ip), vehicle: saline
  T/C: 100 % of control
dose: 400.0 mg/kg/injection, schedule: Q04DX003 (ip), vehicle: saline
  T/C: 100 % of control

## COC(=O)c1c(C(=O)OC)c(-c2ccccc2)n(CCn2c(-c3ccccc3)c(C(=O)OC)c(C(=O)OC)c2-c2ccccc2)c1-c1ccccc1
[1]
  T/C: 96 % of control
[2]
  T/C: 93 % of control
[3]
  T/C: 95 % of control
